Experimental data as given in patent publication US20100286186A1, “NOVEL DICARBOXYLIC ACID LINKED AMINO ACID AND PEPTIDE PRODRUGS OF OPIOIDS AND USES THEREOF” (Shire LLC, priority 2009, published 2010).
“And” between values parts separate entries of the source, which are not always exact repeats. Identical values can stand only once. Marks after values point to notes of the source that are not given here.

Legend:
[1] = Bioavailability of oxycodone, codeine and dihydrocodeine from their succinyl valine ester prodrugs in the dog (oral gavage, two-way crossover); details: dogs; for T>50%Cmax of oxycodone: oral gavage, 1 mg free base equivalents oxycodone/kg
Method: The characteristics of the test animals are set out in Table 10, below.
Blood samples were taken at various times after administration and submitted to analysis for the parent drug and pro-drug using a validated LC-MS-MS assay. Pharmacokinetic parameters derived from the plasma analytical data were determined using Win Nonlin.

[2] = tested on: guinea pig small intestine myenteric plexus longitudinal muscle; assay: Ex vivo smooth muscle contractility, electrical field stimulation response of isolated guinea pig small intestine
[3] = tested on: gut motility in the rat; assay: Charcoal propulsion test of GI motility in the rat; type: in vivo; details: oral
[4] = Comparative oral bioavailability of oxycodone from various dicarboxylate bridged amino acid prodrugs in dogs (nine-way crossover); type: in vivo, dog; details: 1 mg/kg oxycodone free base, mean (±sd)
[5] = Systemic availability of oxycodone after intranasal insufflation to dogs; details: nominal […] equivalents; for half-life: t½ of intact prodrug
[6] = Comparative pharmacokinetics of oxycodone in the cynomolgus monkey after oral administration
[7] = Comparative pharmacokinetics of oxycodone after oral administration to female Sprague Dawley rats; details: 10 mg oxycodone free base equivalents/kg; for T>50%Cmax of oxycodone: oral
[8] = In vitro stability of dicarboxylate amino acid ester prodrugs in simulated gastric and intestinal juice, distilled water and pH 10 buffer (HPLC)
[9] = Plasma pharmacokinetics of meptazinol dicarboxylate linked prodrugs after oral gavage to dogs; type: in vivo, dog; details: dog, plasma, 1 mg meptazinol base equivalents/kg body weight, oral, read-out: expected Cmax of meptazinol after giving the drug itself
[10] = in vivo; cited from earlier work
[11] = cited from earlier work
[12] = in vivo; cited from earlier work; remark: listed apart in the source
[13] = rat model; cited from earlier work
[14] = male cynomolgus monkeys, oral prodrug, 1 mg oxycodone free base equivalents/kg, individual monkeys 1-5
[15] = oral prodrug, individual rats, listed as Oxycodone succinyl valine enol ester

Which results are given for COc1ccc2c3c1O[C@H]1C(OC(=O)CCC(=O)NC(C(=O)O)C(C)C)=CC[C@@]4(O)[C@@H](C2)N(C)CC[C@]314 (stereo in doubt) [oxycodone-[succinyl-(S)-valine] enol ester]?
T>50%Cmax of oxycodone ([1]; individual dogs 1-5): 1.5 h (3×) and 2.5 h (2×); T>50%Cmax of oxycodone ([1]; median (n=5)): 1.5^a h; period for which plasma concentrations were maintained above 50% of Cmax, compared to the drug itself ([1]; oral, oxycodone in plasma): three times longer; EC50 ([2]; Cavia porcellus, isolated guinea pig ileum, concentration as free base of opioid, read-out: EC50, opioid effect on electrical field stimulation response): 2000 nM; reduction in the opioid effects compared to oxycodone itself ([2]; guinea pig ileal smooth muscle): 10 fold; % change from vehicle-treated animals, small intestine ([3]; 10 mg/kg): −12.1%; % change from vehicle-treated animals, total gut length ([3]; 10 mg/kg): −11.2%; % change from vehicle-treated animals, small intestine ([3]; 30 mg/kg): −15.8%; % change from vehicle-treated animals, total gut length ([3]; 30 mg/kg): −15.6%; delay of the passage of the charcoal meal (gut motility) ([3]; 30 mg/kg or equimolar dose): ~16%; % change from vehicle-treated animals, small intestine ([3]; 100 mg/kg): −35.4%; % change from vehicle-treated animals, total gut length ([3]; 100 mg/kg): −35.0%; T50% Cmax of oxycodone [4]: 1.6 (±0.3) h.; AUC ([5]; male, beagle, dog, plasma, other: intranasal insufflation, 0.25 mg oxycodone free base equivalents/kg, AUC of intact prodrug, mean): 10.3 ng·h/mL; AUC(0-t) ([5]; male, beagle, dog, plasma, other: intranasal insufflation, 0.25 mg oxycodone free base equivalents/kg, AUCt of intact prodrug, mean): 5.93 ng·h/mL; Cmax ([5]; male, beagle, dog, plasma, other: intranasal insufflation, 0.25 mg oxycodone free base equivalents/kg, Cmax of intact prodrug, mean): 4.87 ng/mL; Tmax ([5]; male, beagle, dog, plasma, other: intranasal insufflation, 0.25 mg oxycodone free base equivalents/kg, Tmax of intact prodrug, median): 15 min; half-life ([5]; male, beagle, dog, plasma, other: intranasal insufflation, 0.25 mg oxycodone free base equivalents/kg, calculated as ln2/mean k): 45 min; half-life ([5]; male, beagle, dog, plasma, other: intranasal insufflation, 0.25 mg oxycodone free base equivalents/kg, individual dogs): 51 min; Tmax of intact prodrug ([5]; individual dogs): 60 min; AUCt of intact prodrug [6, 14]: 0.76 ng·h/mL and 1.70 ng·h/mL and 0.39 ng·h/mL and 0.32 ng·h/mL and 0.71 ng·h/mL; Cmax of intact prodrug [6, 14]: 1.29 ng/mL and 2.92 ng/mL and 0.57 ng/mL and 0.42 ng/mL and 1.02 ng/mL; T>50%Cmax of oxycodone ([6]; male cynomolgus monkeys, oral, 1 mg oxycodone free base equivalents/kg, individual monkeys 1-5): 1.54 h and 1.63 h and 3.45 h and 4.43 h and 1.38 h; T>50%Cmax of oxycodone ([6]; male cynomolgus monkeys, oral, 1 mg oxycodone free base equivalents/kg, mean (n=5)): 2.49 h; T>50%Cmax of oxycodone ([6]; male cynomolgus monkeys, oral, 1 mg oxycodone free base equivalents/kg, mean (n=5), listed as oxycodone succinyl valine ester): 2.5 h; AUC(0-t) ([6]; male, cynomolgus monkey, plasma, po, 1 mg oxycodone base equivalents/kg, AUCt of intact prodrug, male cynomolgus monkeys, oral prodrug, 1 mg oxycodone free base equivalents/kg, mean (n=5)): 0.78 ng·h/mL; Cmax ([6]; male, cynomolgus monkey, plasma, po, 1 mg oxycodone base equivalents/kg, Cmax of intact prodrug, male cynomolgus monkeys, oral prodrug, 1 mg oxycodone free base equivalents/kg, mean (n=5)): 1.24 ng/mL; prodrug Cmax as % of Cmax of the active drug ([6]; monkeys, oral prodrug): ~7%; AUC of oxycodone ([6]; monkeys, oral, 1 mg oxycodone base equivalents/kg): 42.3 ng/h/mL; AUC(0-t) ([7]; female, Sprague Dawley, rat, plasma, po, AUCt of intact prodrug, oral prodrug, mean (BLQ taken as zero)): 1.24 ng·h/mL; Cmax ([7]; female, Sprague Dawley, rat, plasma, po, Cmax of intact prodrug, oral prodrug, mean (BLQ taken as zero)): 2.35 ng/mL; Tmax ([7]; female, Sprague Dawley, rat, plasma, po, Tmax of intact prodrug, oral prodrug, median): 22.5 min; AUCt of intact prodrug [7, 15]: 3.53 ng · h/mL and 2.55 ng · h/mL and BLQ (2×) and 0.131 ng · h/mL; Cmax of intact prodrug [7, 15]: 6.77 ng/mL and 2.00 ng/mL and BLQ and 1.93 ng/mL and 1.05 ng/mL; Tmax of intact prodrug [7, 15]: 90 min; T>50%Cmax of oxycodone ([7]; individual rats, listed as Oxycodone succinyl valine enol ester): 11.8 h (2×) and 3.5 h and 3.75 h and 2 h; T>50%Cmax of oxycodone ([7]; median, listed as Oxycodone succinyl valine enol ester): 3.75^a h; T>50%Cmax of oxycodone ([7]; median, listed as oxycodone succinyl valine ester): 3.75 h; Simulated gastric fluid (pH 1.1): % remaining after 2 h/37° C. ([8]; pH 1.1, 2 h, 37° C.): 98%; Distilled water (pH 5.9): % remaining after 2 h/20° C. ([8]; pH 5.9, 2 h, 20° C.): 100%; Simulated intestinal fluid (pH 6.8): % remaining after 2 h/37° C. ([8]; pH 6.8, 2 h, 37° C.): 85%; pH 10.0 buffer: % remaining after 2 h/20° C. ([8]; pH 10.0, 2 h, 20° C.): 64%

With CCC1(c2cccc(O)c2)CCCCN(C)C1 (centres unmarked) [Meptazinol, meptazinol, reference compound] as the compound, how does the Cmax [9] read?
The Cmax was 2 to 5 ng/mL.

And the oral bioavailability [10]?
Its oral bioavailability is under 10%.

For CCC(=O)Oc1ccc2c3c1O[C@H]1[C@@H](O)C=C[C@H]4[C@@H](C2)N(C)CC[C@@]341 [morphine-3-propionate], which “half-life of hydrolysis in human plasma” value [11] is on record?
The value was “less than 5 minutes”.

Which “chemical degradation in the GI tract before absorption” value [12] does the source give for CC(C)[C@H](N)C(=O)OCCOCn1cnc2c(=O)nc(N)[nH]c21 [valine ester of acyclovir] here?
Its value is 15-25%.

With “(Z)-3-[2-(propionyloxy)phenyl]-2-propanoic ester” as the compound, how does the “bioavailability over meptazinol itself” value [13] read?
Its value is “significant increase in bioavailability”.
